For assay [1], the system named is Russian thistle. The assay can be described thus: Test D postemergence. The assay is classed as in vivo, Salsola kali. The note with it: scale 0 to 100; for Plant response rating, Russian Thistle: 16 g ai/ha. The text has this:
Seeds of plant species selected from bluegrass (annual bluegrass, Poa annua), blackgrass (Alopecurus myosuroides), canarygrass (littleseed canarygrass, Phalaris minor), chickweed (common chickweed, Stellaria media), galium (catchweed bedstraw, Galium aparine), bromegrass, downy (downy bromegrass, Bromus tectorum), field poppy (Papaver rhoeas), field violet (Viola arvensis), foxtail, green (green foxtail, Setaria viridis), deadnettle (henbit deadnettle, Lamium amplexicaule), ryegrass, Italian (Italian ryegrass, Lolium multiflorum), kochia (Kochia scoparia), lambsquarters (Chenopodium album), oilseed rape (Brassica napus), pigweed (redroot pigweed, Amaranthus retroflexus), chamomile (scentless chamomile, Matricaria inodora), speedwell (bird's-eye speedwell, Veronica persica), barley, spring (spring barley, Hordeum vulgare), wheat, spring (spring wheat, Triticum aestivum), buckwheat, wild (wild buckwheat, Polygonum convolvulus), mustard, wild (wild mustard, Sinapis arvensis), oat, wild (wild oat, Avena fatua), radish, wild (wild radish, Raphanus raphanistrum), windgrass (Apera spica-venti), Russian thistle (Salsola kali), barley, winter (winter barley, Hordeum vulgare), and wheat, winter (winter wheat, Triticum aestivum) were planted into a silt loam soil and treated preemergence with test chemicals formulated in a non-phytotoxic solvent mixture which included a surfactant.
At the same time, these species were planted in pots containing Redi-Earth® planting medium (Scotts Company, 14111 Scottslawn Road, Marysville, Ohio 43041) comprising spaghnum peat moss, vermiculite, wetting agent and starter nutrients and treated with postemergence applications of the test chemicals formulated in the same manner. Plants ranged in height from 2 to 18 cm (1- to 4-leaf stage). Treated plants and controls were maintained in a controlled growth environment for 14 to 21 days after which time all species were compared to controls and visually evaluated. Plant response ratings, summarized in Table D, are based on a scale of 0 to 100 where 0 is no effect and 100 is complete control. A dash (-) response means no test result.

In assay [2] the test system is windgrass. Briefly: Test C postemergence. The note with it: 125 g ai/ha, scale 0 to 100, 0 no effect, 100 complete control. It counts as in vivo, Apera spica-venti.
The test system of assay [3] is windgrass. Briefly: Test C postemergence. It counts as in vivo, Apera spica-venti. The note with it: 62 g ai/ha, scale 0 to 100.
Assay [4] has as its system crabgrass, Brazil. Briefly: Test F preemergence. It counts as in vivo, Digitaria horizontalis. The text has this: Seeds of plant species selected from corn (Zea mays), soybean (Glycine max), velvetleaf (Abutilon theophrasti), lambsquarters (Chenopodium album), wild poinsettia (Euphorbia heterophylla), pigweed, palmer (palmer pigweed, Amaranthus palmeri), common waterhemp (Amaranthus rudis), surinam grass (Brachiaria decumbens), large crabgrass (Digitaria sanguinalis), crabgrass, Brazil (Brazilian crabgrass, Digitaria horizontalis), fall panicum (Panicum dichotomiflorum), giant foxtail (Setaria faberii), green foxtail (Setaria viridis), goosegrass (Eleusine indica), johnsongrass (Sorghum halepense), common ragweed (Ambrosia elation), barnyardgrass (Echinochloa crus-galli), southern sandbur (Cenchrus echinatus), arrowleaf sida (Sida rhombifolia), Italian ryegrass (Lolium multiflorum), dayflower, VA (Virginia (VA) dayflower, Commelina virginica), field bindweed (Convolvulus arvensis), cocklebur (common cocklebur, Xanthium strumarium), morningglory (Ipomoea coccinea), nightshade (eastern black nightshade, Solanum ptycanthum), kochia (Kochia scoparia), yellow nutsedge (Cyperus esculentus), and hairy beggarticks (Bidens pilosa), were planted into a silt loam soil and treated preemergence with test chemicals formulated in a non-phytotoxic solvent mixture which included a surfactant.
At the same time, plants from these crop and weed species and also horseweed (Canada horseweed, Conyza canadensis), smartweed (ladysthumb smartweed, Polygonum persicaria), waterhemp_RES1, (ALS & Triazine resistant common waterhemp, Amaranthus rudis), and waterhemp_RES2, (ALS & HPPD resistant common waterhemp, Amaranthus rudis) were treated with postemergence applications of test chemicals formulated in the same manner. Plants ranged in height from 2 to 18 cm for postemergence treatments (1- to 4-leaf stage). Treated plants and controls were maintained in a greenhouse for 14 to 21 days, after which time all species were compared to controls and visually evaluated. Plant response ratings, summarized in Table F, are based on a scale of 0 to 100 where 0 is no effect and 100 is complete control. A dash (-) response means no test result.

Assay [5] deals with blackgrass. Briefly: Test A postemergence. The assay is classed as in vivo, Alopecurus myosuroides. A digest of the protocol:
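Pre- and postemergence greenhouse test; loam+sand; cpd in non-phytotox. solvent/surfactant; post at 1–2 leaf, 2–10 cm; visual score ~10 d, 0 = none, 100 = complete control.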

The mark [6] stands for this setting: Preemergence, 62 g ai/ha, scale 0 to 100.
Setting [7] is: Preemergence, 125 g ai/ha, scale 0 to 100.
Setting [8] is: preemergence, 16 g ai/ha, scale 0 to 100, 100 is complete control.
Where [9] appears, read: Preemergence, 250 g ai/ha, scale 0 to 100.
[10] abbreviates: Postemergence, 500 g ai/ha, 0 to 100 scale (0 no effect, 100 complete control).
Where [11] appears, read: postemergence, 125 g ai/ha, about 10 days, visual rating on 0 to 100 scale (0 no effect, 100 complete control).

As to `Cc1cc(C(=O)NCC(F)(F)F)nn1Cc1ccnc(C(F)(F)F)c1` [Compound 74], in assay [1] (Postemergence), the “Plant response rating, Russian Thistle” value was 0. The “Russian Thistle plant response rating” value in assay [1] (Postemergence, 31 g ai/ha) is reported as 0; in assay [1] (Postemergence, 125 g ai/ha) it was 60; in assay [1] (postemergence, 62 g ai/ha), 0. Besides, the “Plant response rating, Windgrass” value in assay [2] worked out at 0. The “Windgrass plant response rating” value in assay [3] was found to be 0.

Take `CCc1cc(-c2ccc(C(F)(F)F)cc2)nn1Cc1ccnc(C(F)(F)F)c1` [Compound 110]: the “Plant response rating, Crabgrass, Brazil” value in assay [4] (Preemergence, 31 g ai/ha, scale 0 to 100) is 100; in assay [4] (setting [6]) it was 100; in assay [4] (setting [7]), 100; in assay [4] (preemergence, 8 g ai/ha, scale 0 to 100, 100 is complete control) it was 50; in assay [4] (setting [8]), 70.

For the molecule `CCc1cc(C(=O)NCC(F)(F)F)nn1Cc1ccnc(Br)c1` [Compound 224], the results for the “Plant response rating, Crabgrass, Brazil” value in assay [4] (setting [6]), in assay [4] (setting [7]) and in assay [4] (setting [9]) were 98, 100 and 100, respectively.

As to `CCc1cc(C(=O)NOC(C)C)nn1Cc1ccnc(OC(F)F)c1` [Compound 126], the “Blackgrass plant response rating” value in assay [5] (setting [10]) and in assay [5] (setting [11]) was 90 in each case.

Turning to `CCOc1cc(C(=O)NCC(F)(F)F)nn1Cc1ccnc(OC(F)F)c1` [Compound 128], the “Blackgrass plant response rating” value in assay [5] (setting [10]) worked out at 100; in assay [5] (setting [11]), 90.

Consider `CCCNC(=O)c1cc(OCC)n(Cc2ccnc(OC(F)F)c2)n1` [Compound 136], for which the “Blackgrass plant response rating” value in assay [5] (setting [10]) was 100; in assay [5] (setting [11]), 80.

As to `CCCNC(=O)c1cc(CC)n(Cc2cccc(OC(F)(F)F)c2)n1` [Compound 27], in assay [2], the “Plant response rating, Windgrass” value was 40. Moreover, the “Windgrass plant response rating” value in assay [3] amounted to 20.

`CCONC(=O)c1cc(CC)n(Cc2cccc(OC(F)(F)F)c2)n1` [Compound 72]: the “Plant response rating, Windgrass” value in assay [2] is recorded as 25. In assay [3], the “Windgrass plant response rating” value worked out at 20.

`CCc1cc(C(=O)NCC(F)(F)F)nn1Cc1cccc(OC(F)(F)F)c1` [Compound 20]: the “Plant response rating, Windgrass” value in assay [2] was 40. Moreover, the “Windgrass plant response rating” value in assay [3] was 10.

Consider `CCCc1cc(C(=O)NCC(F)(F)F)nn1Cc1ccnc(OC(F)F)c1` [Compound 127], for which the “Blackgrass plant response rating” value in assay [5] (setting [10]) and in assay [5] (setting [11]) was 90 throughout.

As for `CCCc1cc(C(=O)NC2CC2)nn1Cc1ccnc(OC(F)F)c1` [Compound 205], the “Blackgrass plant response rating” value in assay [5] (setting [10]) is reported as 90; in assay [5] (setting [11]) it was 70.

On to `CCCc1cc(C(=O)NC(C)C)nn1Cc1cc(C(F)(F)F)nn1C` [Compound 201], for which the “Plant response rating, Crabgrass, Brazil” value turned out to be 75 in assay [4] (Preemergence, 16 g ai/ha, scale 0 to 100); 95 in assay [4] (setting [6]); 100 in assay [4] (setting [7]); 100 in assay [4] (setting [9]); 0 in assay [4] (setting [8]).

Consider `CCc1cc(C(=O)NC2CC2)nn1Cc1ccnc(C(F)(F)F)c1` [Compound 76], for which the “Plant response rating, Russian Thistle” value in assay [1] (Postemergence) came out at 5. In addition, the “Russian Thistle plant response rating” value in assay [1] (Postemergence, 31 g ai/ha) is given as 5; in assay [1] (Postemergence, 125 g ai/ha), 10; in assay [1] (Postemergence, 250 g ai/ha) it was 40; in assay [1] (postemergence, 62 g ai/ha), 5.

With `CCc1cc(C(=O)NOC(C)C)nn1Cc1cccc(OC(F)(F)F)c1` [Compound 70], the “Plant response rating, Russian Thistle” value in assay [1] (Postemergence) came out at 0. Besides, the “Russian Thistle plant response rating” value in assay [1] (Postemergence, 31 g ai/ha) came out at 80; in assay [1] (Postemergence, 125 g ai/ha) it was 85; in assay [1] (Postemergence, 250 g ai/ha), 90; in assay [1] (postemergence, 62 g ai/ha) it was 80. In addition, in assay [2], the “Plant response rating, Windgrass” value is 50. Moreover, the “Windgrass plant response rating” value in assay [3] was determined as 25.

The values above are taken from patent US20150105252A1, “SUBSTITUTED PYRAZOLES AS HERBICIDES” (E I DU PONT DE NEMOURS AND COMPANY, priority 2013, published 2015).
